row,SMILES,melting point
1,CSc1nc2ccnn2c(NOCCC2OCCCO2)c1C#N [compound 217],193 to 195 °C
2,C=CCSc1nc2ccnn2c(NCc2ccncc2)c1C#N [compound 76],178.8 to 179.8 °C
3,COC(=O)c1c(SC)nc2ccnn2c1NC1CCCC1 [compound 123],84.5 to 85.5 °C
4,COc1ccc(CNc2c(C#N)c(SC)nc3ccnn23)cc1 [compound 56],137 °C
5,N#Cc1c(-c2ccccc2)nc2ccnn2c1NCc1ccccc1 [compound 86],120 to 122 °C
6,CSc1nc2ccnn2c(NOCC2OCCO2)c1C#N [compound 208],152 to 153 °C
7,CCN(Cc1ccncc1)c1c(C#N)c(SC)nc2ccnn12 [compound 228],102 to 103 °C
8,CSc1nc2ccnn2c(NC2CCCC2)c1[N+](=O)[O-] [compound 127],132 to 134 °C
9,"CSc1nc2ccnn2c(OCc2ccccc2)c1C#N [Compound No. 51, 7-benzyloxy-5-methylthiopyrazolo[1,5-a]pyrimidine-6-carbonitrile]",194 °C
10,CSc1nc2ccnn2c(Nc2ccc(C(=O)O)cc2)c1C#N [compound 176],> 250 °C
11,CSc1nc2ccnn2c(OCCOc2ccccc2)c1C#N [compound 182],125 °C
12,CSc1nc2ccnn2c(Nc2ccc(C(N)=O)cc2)c1C#N [compound 197],> 280 °C
13,CSc1nc2ccnn2c(N2CCC(C)CC2)c1C#N [compound 160],118 to 120 °C
14,CSc1nc2ccnn2c(NCc2ccc(Cl)cc2)c1C#N [compound 31],167 °C
15,CCSc1nc2ccnn2c(NCc2ccccc2)c1C#N [compound 67],112 to 113.4 °C
16,CSc1nc2ccnn2c(Nc2ccncc2)c1C#N [compound 81],260 to 263 °C
17,CSc1nc2ccnn2c(Nc2cccc(Cl)c2)c1C#N [compound 162],161 to 162 °C
18,CSc1nc2ccnn2c(NC(C)=O)c1C#N [Compound No. 7],> 280 °C
19,N#Cc1c(Cc2ccccc2)nc2ccnn2c1NCc1ccncc1 [compound 90],195 to 198 °C
20,CSc1nc2ccnn2c(NCCC2OCCCO2)c1C#N [compound 216],103 to 104 °C
21,"CSc1nc2ccnn2c(N)c1C#N [compound 1, 7-amino-5-methylthiopyrazolo[1,5-a]pyrimidine-6-carbonitrile]",> 240 °C
22,CSc1nc2cc(C)nn2c(O)c1C#N [compound 184],> 250 °C
23,N#Cc1c(-c2ccccc2)nc2ccnn2c1N [compound 85],> 250 °C

row,SMILES,melting point
1,CSc1nc2nc(SC)c(C#N)c(N)n2n1 [compound 35],> 250 °C
2,CSc1nc2nc(SC)c(C#N)c(NCc3ccccc3)n2n1 [compound 36],154 °C
3,CSc1nc2ccnn2c(NCc2ccccc2)c1[N+](=O)[O-] [compound 125],136.5 to 138.5 °C
4,N#Cc1c(C2CCCCC2)nc2ccnn2c1N [compound 91],> 250 °C
5,CCOC(=O)CNc1c(C#N)c(SC)nc2ccnn12 [compound 13],184 to 185 °C
6,CSc1nc2ccnn2c(N)c1S(C)(=O)=O [compound 58],230 to 233 °C
7,COC(=O)c1ccc(CNc2c(C#N)c(SC)nc3ccnn23)cc1 [compound 23],171 °C
8,CSc1nc2ccnn2c(Nc2ccc(N(C)C)cc2)c1C#N [compound 202],250 to 252 °C
9,C#CCNc1c(S(C)(=O)=O)c(SC)nc2ccnn12 [compound 59],175 °C
10,CSc1nc2ccnn2c(NCOCc2ccccc2)c1C#N [compound 10],63 to 64 °C
11,CSc1nc2ccnn2c(NOCC2CCCCO2)c1C#N (stereo not drawn) [compound 209],161 °C
12,CSc1nc2ccnn2c(NOc2ncc(C(F)(F)F)cc2Cl)c1C#N [compound 204],182 to 183 °C
13,C#CCSc1nc2ccnn2c(NCc2ccccc2)c1C#N [compound 95],142.2 to 144.2 °C
14,CSc1nc2ccnn2c(NCc2ccccc2Cl)c1C#N [compound 33],160 °C
15,CSc1nc2ccnn2c(N)c1C#N [compound 41],> 250 °C
16,CSc1nc2ccnn2c(N=Cc2ccccc2)c1C#N [compound 34],188 °C
17,CSc1nc2ccnn2c(Nc2cccc(S(=O)(=O)N(C)C)c2)c1C#N [compound 151],205 to 208 °C
18,N#Cc1c(SC2CCCC2)nc2ccnn2c1NCc1ccccc1 [compound 104],115.8 to 116.6 °C
19,COC(=O)c1c(SC)nc2ccnn2c1O [compound 155],192 to 194 °C
20,COc1ccc(Nc2c(C#N)c(SC)nc3ccnn23)cc1 [compound 169],214 to 215 °C
21,C=CCSc1nc2ccnn2c(NCc2ccccc2)c1C#N [compound 77],90 to 91.5 °C
22,CSc1nc2cccn2c(NC2CCCCC2)c1C#N [compound 109],117 to 118 °C
23,CSc1nc2ccnn2c(NCc2ccccc2)c1S(C)(=O)=O [compound 61],163 to 164 °C

row,SMILES,melting point
1,COC(=O)c1c(SC)nc2ccnn2c1Cl [compound 119],105 to 113 °C
2,CSc1nc2ccnn2c(NCC(=O)c2ccccc2)c1C#N [compound 18],212 to 213 °C
3,CSc1nc2ccnn2c(NCc2cccs2)c1C#N [compound 180],142 °C
4,CSc1nc2c(Br)cnn2c(N)c1C#N [compound 54],> 250 °C
5,CSc1nc2nc3ccccc3n2c(N)c1C#N [compound 45],> 250 °C
6,CCC(CC)Sc1nc2ccnn2c(N)c1C#N [compound 113],242 to 243.8 °C
7,CSc1nc2ccnn2c(NCC#N)c1C#N [compound 84],207 °C
8,CSc1nc2ccnn2c(Nc2ccc(NC(C)=O)cc2)c1C#N [compound 193],> 280 °C
9,CSc1nc2ccnn2c(NCc2cccc(Cl)c2)c1C#N [compound 32],155 °C
10,CCOC(=O)c1ccc(Nc2c(C#N)c(SC)nc3ccnn23)cc1 [compound 175],191 to 192 °C
11,CSc1nc2ccnn2c(Nc2ccc(S(N)(=O)=O)cc2)c1C#N [compound 149],285 to 288 °C (dec.)
12,CSc1nc2cc(-c3ccccc3)nn2c(N)c1C#N [compound 44],233 °C
13,"CSc1nc2ccnn2c(O)c1C#N [compound 49, 7-hydroxy-5-methylthiopyrazolo[1,5-a]pyrimidine-6-carbonitrile]",> 250 °C
14,CSc1nc2ccnn2c(NCc2ccncc2)c1S(C)(=O)=O [compound 63],195 to 196 °C
15,CSc1nc2ccnn2c(NCCc2ccccc2)c1C#N [compound 12],107 °C
16,CCC(CC)Sc1nc2ccnn2c(NCc2ccccc2)c1C#N [compound 114],107 to 108.3 °C
17,CSc1nc2cc(C)nn2c(Nc2ccccc2)c1C#N [compound 189],185 to 187 °C
18,CSc1nc2ccnn2c(Nc2ccc(C(C)=O)cc2)c1C#N [compound 199],260 to 261 °C
19,CSc1nc2ccnn2c(Nc2ccc(S(C)(=O)=O)cc2)c1C#N [compound 201],241 to 244 °C
20,"CSc1nc2ccnn2c(NCc2ccco2)c1C#N [Compound No. 78, 7-furfurylamino-5-methylthiopyrazolo[1,5-a]pyrimidine-6-carbonitrile]",110 °C
21,CSc1nc2ccnn2c(NCCOc2ccccc2)c1C#N [compound 181],122 °C
22,CCC(CC)Sc1nc2ccnn2c(NCc2ccncc2)c1C#N [compound 115],129 to 133.4 °C
23,C#CCSc1nc2ccnn2c(NCc2ccncc2)c1C#N [compound 96],208.5 to 208.7 °C

row,SMILES,melting point
1,CSc1nc2ccnn2c(Nc2ccc3c(c2)CCC3)c1C#N [compound 165],146 to 148 °C
2,CSc1nc2ccnn2c(NCc2ccncc2)c1C(=O)O [compound 129],155 to 157 °C
3,CSc1nc2ccnn2c(NCc2ncc(C(F)(F)F)cc2Cl)c1C#N [compound 207],185 to 187 °C
4,CCSc1nc2ccnn2c(N)c1C#N [compound 66],> 240 °C
5,CSc1nc2ccnn2c(Nc2ccc(CC#N)cc2)c1C#N [compound 198],268 to 269 °C
6,CSc1nc2ccnn2c(Nc2ccc(OC(F)(F)F)cc2)c1C#N [compound 167],243 to 244 °C
7,CSc1nc2ccnn2c(NCc2ccncc2)c1C(=O)OCc1ccccc1 [compound 147],122 to 123 °C
8,CSc1nc2ccnn2c(Nc2cccc(C(=O)O)c2)c1C#N [compound 195],168 to 171 °C
9,CSc1nc2ccnn2c(Nc2ccc(S(=O)(=O)N(C)C)cc2)c1C#N [compound 150],303 to 306 °C (dec.)
10,CSc1nc2ccnn2c(NCc2ccc([N+](=O)[O-])cc2)c1C#N [compound 16],215 °C
11,COc1nc2ccnn2c(NCc2ccncc2)c1C#N [compound 153],193 to 195 °C
12,CSc1nc2cc(C)nn2c(NCc2ccccc2)c1C#N [compound 187],204 to 205 °C
13,CSc1nc2ccnn2c(Cl)c1C(=O)OCc1ccccc1 [compound 146],52 to 54 °C
14,CSc1nc2nc(SC)c(C#N)c(NCc3ccncc3)n2n1 [compound 38],230 to 233 °C
15,C#CCSc1nc2ccnn2c(N)c1C#N [compound 94],206 °C (dec.)
16,CSc1nc2ccnn2c(Nc2cccc(C#N)c2)c1C(=O)O [compound 134],162.5 to 164.5 °C
17,CSc1ccc(Nc2c(C#N)c(SC)nc3ccnn23)cc1 [compound 196],190 to 191 °C
18,C=CCSc1nc2ccnn2c(N)c1C#N [compound 75],258.5 to 259 °C
19,CSc1nc2ccnn2c(NCCC(C)C)c1C#N [compound 19],87 to 88 °C
20,COC(=O)c1ccc(Nc2c(C#N)c(SC)nc3ccnn23)cc1 [compound 171],205 to 206 °C
21,COC(=O)c1cccc(Nc2c(C#N)c(SC)nc3ccnn23)c1 [compound 194],153 to 155 °C
